{
  "source": "patent US20060004029A1",
  "about": "“Nitrogen-containing aromatic derivatives” (priority 2003, published 2006)",
  "key": {"[1]": {"tested_on": "Human Umbilical Vein Endothelial Cells (HUVECs)", "test": "Inhibition against sandwich tube formation by vascular endothelial cells, FGF2-stimulated", "format": "cell-based", "conditions": "HUVEC, 20 ng/ml FGF2 and 10 ng/ml EGF, 4th day after addition", "method": "(§1) Human Umbilical Vein Endothelial Cells (HUVECs) were isolated according to a reported method (Shinseikagaku Jikken Koza [New Biochemistry Experiment Lectures], “Saibo Baiyo Gijutsu” [Cell Culturing Techniques], p. 197-202), • and were cultured in a 5% CO2 incubator (37° C.) using EGM-2 medium (purchased from Clonetics Corp.) until the cells reached confluency.\n(§2) An ice-cooled mixture of collagen: 5×RPMI 1640: reconstitution buffer (all purchased from Nitta Gelatin, Inc.) at 7:2:1 was dispensed at 0.4 ml into each well of a 24-well plate. After the solution was gelled by being stationed for 40 minutes in a 5% CO2 incubator (37° C.), HUVEC cell suspension was added at 0.4 ml to each well (using 1 to 1.2×10^5 cells, though the numbers of cells differ slightly according to the HUVEC lot), the HUVEC cell suspension being in human endothelial serum free medium (SFM, purchased from GIBCO BRL) containing added angiogenesis factors [20 ng/ml FGF2 (purchased from GIBCO BRL) and 10 ng/ml EGF (purchased from GIBCO BRL), or 25 ng/ml VEGF (purchased from Wako Pure Chemical Industries Co., Ltd.) and 10 ng/ml EGF, or 30 ng/ml HGF (purchased from R&D Co.) and 10 ng/ml EGF], and cultured overnight in a 5% CO2 incubator (37° C.). On the following day, the medium on the upper layer was aspirated off, and then 0.4 ml of an ice-cooled mixture of collagen: 5×RPMI 1640: reconstitution buffer (all purchased from Nitta Gelatin, Inc.) at 7:2:1 was superposed into each well prior to stationing for 4 hours in a 5% CO2 incubator (37° C.) for gelling. After adding 1.5 ml of an SFM solution containing each of the aforementioned angiogenesis factors and a diluted test substance onto the upper layer, culturing was performed in a 5% CO2 incubator (37° C.). Upon aspirating off the culture supernatant in each well on the 4th day after addition of the test substance, 0.4 ml of a 3.3 mg/ml MTT solution dissolved in PBS (purchased from Sigma Corp.) was added to each well and culturing was performed for approximately 2 hours in a 5% CO2 incubator (37° C.). The tubes formed in the collagen gel of each well were stained by MTT, the tube images were loaded into a computer (Macintosh), and the total length of the tubes was determined by image analysis software “MacScope” (purchased from Mitani Corp.). The ratio of the total length of the tubes formed in the well containing the test substance with respect to the total length of the tubes formed in the well containing no test substance was expressed as a percentage, and the concentration of each test substance required for 50% inhibition of tube formation (IC50) was determined from the ratio value."}, "[2]": {"tested_on": "Human Umbilical Vein Endothelial Cells (HUVECs)", "test": "Inhibition against sandwich tube formation by vascular endothelial cells, VEGF-stimulated", "format": "cell-based", "conditions": "HUVEC, 25 ng/ml VEGF and 10 ng/ml EGF, 4th day after addition", "method": "as §1, §2"}},
  "data": [
    {"smiles": "CCNC(=O)n1ccc2cc(Oc3ccnc(NC(=O)N4CCC(C)(O)CC4)c3)ccc21", "note": "[Example 78, 5-(2-(((4-Hydroxy-4-methylpiperidin-1-yl)carbonyl)amino)pyridin-4-yloxy)-1H-indole-1-carboxylic acid ethylamide]", "values": [
      {"measurement": "IC50", "setting": "[1]", "value": 450, "unit": "nM"},
      {"measurement": "IC50", "setting": "[2]", "value": 3, "unit": "nM"}
    ]}
  ]
}
